Test results reported in patent US20240245660A1, “METHODS OF TREATING GASTROINTESTINAL STROMAL TUMORS” (Deciphera Pharmaceuticals, LLC, priority 2022, published 2024).

How the values were obtained:
[1] = tested on: advanced gastrointestinal stromal tumor (GIST); assay: Multicenter, global, randomized, open-label, phase 3 study of ripretinib versus sunitinib with baseline ctDNA analysis (Examples 1 and 5); type: in vivo, human; settings: for forest plot of PFS by KIT exon 11 mutational subgroups from baseline ctDNA: FIG. 10; for forest plot of OS by KIT exon 11 mutational subgroups from baseline ctDNA / forest plot of OS by KIT mutational status from baseline ctDNA: Interim Analysis 2; for forest plot of OS by KIT exon 11 mutational subgroups from baseline ctDNA: FIG. 14; for forest plot of ORR by KIT exon 11 mutational subgroups from baseline ctDNA: FIG. 12; for forest plot of OS by KIT mutational status from baseline ctDNA: FIG. 13; for median PFS by IRR: KIT mutations at exon 17/18, excluding KIT exons 9, 13, and/or 14, FIG. 4; for forest plot of PFS by KIT mutational status from baseline ctDNA: FIG. 9; for Median Progression-Free Survival (mPFS): patients with mutations in KIT exon 11 and 17 or 18 only (ctDNA; excluding exons 9, 13, 14), by IRR, ripretinib 150 mg QD or sunitinib 50 mg QD; for forest plot of ORR by KIT mutational status from baseline ctDNA: FIG. 11; for OS HR, ripretinib versus sunitinib (Cox model) / PFS HR, ripretinib versus sunitinib (Cox model): sex, and race
Description: This study is a multicenter, global, randomized, open-label, phase 3 study which enrolled adult patients with advanced gastrointestinal stromal tumor (GIST) who progressed on or had intolerance to imatinib. Randomization was 1:1 to ripretinib 150 mg once daily (QD) or sunitinib 50 mg once daily (QD) (4 weeks on/2 weeks off). Baseline peripheral whole blood was analyzed by Guardant360, a 74-gene circulating tumor DNA (ctDNA) next-generation sequencing (NGS)-based assay.
Of the 453 patients in the overall intent-to-treat population (ITT), baseline ctDNA analysis was performed in 362 patients for whom evaluable samples were available. ctDNA was detected in 280 samples and KIT mutations were detected in 213 patients. Primary mutations in KIT were detected in exon 11 in 157 patients and in exon 9 in 36 patients. Common resistance mutations in KIT were in exons 17/18 in 89 patients and exons 13/14 in 81 patients. In patients with a KIT exon 11 primary mutation, 52 patients had mutations in exon 17 or 18 only, 41 had mutations in exon 13 or 14 only, and 22 patients had mutations in both exon 13 or 14 and exon 17 or 18. […] Efficacy in patients with detectable ctDNA in KIT exon 11 and the ITT populations was consistent with the primary analysis based on tumor data used for randomization. The subgroup safety profiles were consistent with the primary analysis.
Cox proportional hazards analyses of PFS and OS were conducted to examine the interaction of treatment arm and mutational subgroup with or without adjustment for baseline characteristics in the study of Example 1.
With respect to PFS, a Cox model with the interaction effect was used and the Bonferroni adjustment was applied. […] The treatment effect was nominally significant in the KIT exon 11+13/14 and KIT exon 11+17/18 populations before and after performing the Bonferroni correction. […] The results were robust when accounting for multiple treatment comparisons across mutational subgroups.
With respect to OS, a Cox model with the interaction effect was used and the Bonferroni adjustment was applied. […] The treatment effect was nominally significant in the KIT exon 11+17/18 population before and after performing the Bonferroni correction, but not in the KIT exon 11+13/14 population. […] The results were robust when accounting for multiple treatment comparisons across mutational subgroups.

[2] = tested on: gastrointestinal stromal tumors (GIST); assay: Bridging study of second-line ripretinib versus sunitinib in GIST patients in China (Example 3); type: in vivo, human; settings: patients in China with KIT exon 11 and exon 17/18 mutations per tumor tissue ITT population; ripretinib 150 mg once daily or sunitinib 50 mg once daily; FIG. 16
Description: Results from a bridging study, with respect to the study of Example 1 above, of second-line administration of 150 mg once daily ripretinib, as compared to administration of 50 mg once daily sunitinib, in gastrointestinal stromal tumors (GIST) patients in China were obtained. In the study, 21 patients were determined to have mutations at KIT exon 11 and exon 17/18 per the tumor tissue ITT population. Progression-free survival (PFS) was determined with independent radiologic review using mRECIST. A Kaplan-Meier plot of PFS is provided as FIG. 16.

[3] = tested on: GISTs with KIT exon 11 primary mutations; settings: cited from earlier work
[4] = KIT exon 11 and 17 or 18 only (ctDNA), Data cut 1
[5] = KIT exon 11 and 17 or 18 only (ctDNA), Data cut 2
[6] = KIT exon 11 and exon 17/18, excluding exons 9, 13, and/or 14, extended interim analysis (Interim Analysis 2), FIG. 6
[7] = KIT exon 11 and exon 17/18, excluding exons 9, 13, and/or 14, interim analysis (Interim Analysis 1), FIG. 5
[8] = KIT exon 17/18, excluding exons 9, 13, and/or 14, extended interim analysis (Interim Analysis 2), FIG. 8
[9] = KIT exon 17/18, excluding exons 9, 13, and/or 14, interim analysis (Interim Analysis 1), FIG. 7
[10] = with adjustment for age, Any KIT exon 9 (n = 36)
[11] = with adjustment for age, KIT exon 11 + 13/14 + 17/18 only (n = 22)
[12] = with adjustment for age, KIT exon 11 + 13/14 only (n = 41)
[13] = with adjustment for age, KIT exon 11 + 17/18 only (n = 52)
[14] = with adjustment for age, KIT exon 11 only (n = 41)
[15] = with adjustment for age, Other KIT/PDGFRA (n = 29)
[16] = without adjustment for age, Any KIT exon 9 (n = 36)
[17] = without adjustment for age, KIT exon 11 + 13/14 + 17/18 only (n = 22)
[18] = without adjustment for age, KIT exon 11 + 13/14 only (n = 41)
[19] = without adjustment for age, KIT exon 11 + 17/18 only (n = 52)
[20] = without adjustment for age, KIT exon 11 only (n = 41)
[21] = without adjustment for age, Other KIT/PDGFRA (n = 29)

Q: With `CCn1c(=O)c(-c2cc(NC(=O)Nc3ccccc3)c(F)cc2Br)cc2cnc(NC)cc21` [ripretinib] as the compound, how does the “forest plot of PFS by KIT exon 11 mutational subgroups from baseline ctDNA” value ([1]; KIT exon 11 and 17 only, exon 11 and 18 only, any exons 11 and 17, any exon 11 and exon 17 or 18) read?
A: favor ripretinib treatment

Q: What about the ORR [1, 4] of the same compound?
A: 44.4%

Q: What about the “ORR Response Difference (95% CI), ripretinib versus sunitinib” value [1, 4] of the same compound?
A: 44.4% (23.0%, 62.7%)

Q: And the “PFS Hazard Ratio (95% CI), ripretinib versus sunitinib” value [1, 4]?
A: 0.22 (0.11, 0.44)

Q: And the ORR ([1]; KIT exon 11 and 17 or 18 only (ctDNA), Data cut 1, listed as Ripretinib)?
A: 44.4%

Q: What about the OS [1, 5] of the same compound?
A: Not Estimable

Q: What about the “OS Hazard Ratio (95% CI), ripretinib versus sunitinib” value [1, 5] of the same compound?
A: 0.34 (0.15, 0.76)

Q: What about the “forest plot of OS by KIT exon 11 mutational subgroups from baseline ctDNA” value ([1]; KIT exon 11 and 17 or KIT exon 11 and 18 mutations) of the same compound?
A: favors ripretinib treatment

Q: What about the “median OS” value [1, 6] of the same compound?
A: not estimable

Q: And the “median OS” value [1, 7]?
A: not estimable

Q: What about the “forest plot of ORR by KIT exon 11 mutational subgroups from baseline ctDNA” value ([1]; KIT exon 11 in combination with KIT exon 17 or 18 mutations) of the same compound?
A: favors ripretinib treatment

Q: And the “PFS, ORR and OS versus sunitinib” value ([1]; KIT exon 11 only primary mutation and exon 17 or 18 secondary mutations only)?
A: superior

Q: And the “median OS” value [1, 8]?
A: not evaluable

Q: And the “median OS” value [1, 9]?
A: not evaluable

Q: And the “forest plot of OS by KIT mutational status from baseline ctDNA” value ([1]; KIT exon 17 and 18 mutations)?
A: favors ripretinib treatment

Q: What about the “median PFS by IRR” value [1] of the same compound?
A: 13.8 months

Q: And the “forest plot of PFS by KIT mutational status from baseline ctDNA” value ([1]; mutations in KIT exons 17 and 18)?
A: favor ripretinib treatment

Q: And the “Median Progression-Free Survival (mPFS)” value ([1]; Data cut 1)?
A: 14.2 months

Q: And the “forest plot of ORR by KIT mutational status from baseline ctDNA” value ([1]; populations with KIT exons 11, 17 or 18)?
A: favors ripretinib treatment

Q: What about the “OS HR, ripretinib versus sunitinib (Cox model)” value [1, 10] of the same compound?
A: 1.33

Q: What about the “PFS HR, ripretinib versus sunitinib (Cox model)” value [1, 10] of the same compound?
A: 3.07

Q: And the “OS HR, ripretinib versus sunitinib (Cox model)” value [1, 11]?
A: 2.09

Q: And the “PFS HR, ripretinib versus sunitinib (Cox model)” value [1, 11]?
A: 0.96

Q: What about the “OS HR, ripretinib versus sunitinib (Cox model)” value [1, 12] of the same compound?
A: 1.91

Q: And the “PFS HR, ripretinib versus sunitinib (Cox model)” value [1, 12]?
A: 3.27

Q: What about the “OS HR, ripretinib versus sunitinib (Cox model)” value [1, 13] of the same compound?
A: 0.34

Q: What about the “PFS HR, ripretinib versus sunitinib (Cox model)” value [1, 13] of the same compound?
A: 0.21

Q: What about the “OS HR, ripretinib versus sunitinib (Cox model)” value [1, 14] of the same compound?
A: 1.55

Q: What about the “PFS HR, ripretinib versus sunitinib (Cox model)” value [1, 14] of the same compound?
A: 2.54

Q: What about the “OS HR, ripretinib versus sunitinib (Cox model)” value [1, 15] of the same compound?
A: 0.63

Q: And the “PFS HR, ripretinib versus sunitinib (Cox model)” value [1, 15]?
A: 0.97

Q: What about the “OS HR, ripretinib versus sunitinib (Cox model)” value [1, 16] of the same compound?
A: 1.32

Q: What about the “PFS HR, ripretinib versus sunitinib (Cox model)” value [1, 16] of the same compound?
A: 2.88

Q: What about the “OS HR, ripretinib versus sunitinib (Cox model)” value [1, 17] of the same compound?
A: 2.15

Q: What about the “PFS HR, ripretinib versus sunitinib (Cox model)” value [1, 17] of the same compound?
A: 0.98

Q: What about the “OS HR, ripretinib versus sunitinib (Cox model)” value [1, 18] of the same compound?
A: 1.88

Q: And the “PFS HR, ripretinib versus sunitinib (Cox model)” value [1, 18]?
A: 3.41

Q: And the “OS HR, ripretinib versus sunitinib (Cox model)” value [1, 19]?
A: 0.32

Q: What about the “PFS HR, ripretinib versus sunitinib (Cox model)” value [1, 19] of the same compound?
A: 0.22

Q: What about the “OS HR, ripretinib versus sunitinib (Cox model)” value [1, 20] of the same compound?
A: 1.64

Q: And the “PFS HR, ripretinib versus sunitinib (Cox model)” value [1, 20]?
A: 2.53

Q: What about the “OS HR, ripretinib versus sunitinib (Cox model)” value [1, 21] of the same compound?
A: 0.78

Q: And the “PFS HR, ripretinib versus sunitinib (Cox model)” value [1, 21]?
A: 1.02

Q: And the “median PFS (independent radiologic review using mRECIST)” value [2]?
A: not reached

Q: For `Cc1ccc(NC(=O)c2ccc(CN3CCN(C)CC3)cc2)cc1Nc1nccc(-c2cccnc2)n1` [imatinib], which 2-year relapse-free survival ([3]; adjuvant setting) is on record?
A: ~90%

Q: What about the median event-free survival ([3]; metastatic setting) of the same compound?
A: under 2 years

Q: What does the source list for `CCN(CC)CCNC(=O)c1c(C)[nH]c(/C=C2\C(=O)Nc3ccc(F)cc32)c1C` [sunitinib, reference compound]?
A: forest plot of ORR by KIT mutational status from baseline ctDNA ([1]; KIT exon 9 mutations): favors sunitinib treatment; forest plot of OS by KIT exon 11 mutational subgroups from baseline ctDNA ([1]; KIT exon 11 and 13 or KIT exon 11 and 14 mutations): favors sunitinib treatment; ORR [1, 4]: 0%; ORR ([1]; KIT exon 11 and 17 or 18 only (ctDNA), Data cut 1, listed as Sunitinib): 0%; OS [1, 5]: 17.5 months; median OS [1, 6]: 17.5 months; median OS [1, 7]: 16.9 months; forest plot of ORR by KIT exon 11 mutational subgroups from baseline ctDNA ([1]; KIT exon 11 in combination with KIT exon 13 only): favors sunitinib treatment; forest plot of OS by KIT mutational status from baseline ctDNA ([1]; KIT exon 13 and 14 mutations): favors sunitinib treatment; median OS [1, 8]: 17.5 months; median OS [1, 9]: 17.0 months; median PFS by IRR [1]: 2.8 months; forest plot of PFS by KIT exon 11 mutational subgroups from baseline ctDNA ([1]; exon 11 mutations in combination with exon 13 or exon 14 mutations): favor sunitinib; forest plot of PFS by KIT mutational status from baseline ctDNA ([1]; mutations in KIT exons 9, 13, and 14): favor sunitinib; Median Progression-Free Survival (mPFS) ([1]; Data cut 1): 1.5 months; median PFS (independent radiologic review using mRECIST) [2]: 6.7 months
